Assay results: patent US20240398849A1, “METHODS FOR THE TREATMENT OF […] WITH CYCLODEXTRINS” (BEREN THERAPEUTICS P.B.C., priority 2022, published 2024)

Experiments:
volunteers [1] = assay: Triglyceride levels in volunteers after a single intravenous dose of HPBCD (FIG. 3A); type: in vivo, humans
Experimental: Twenty-nine volunteers were divided into five groups. Each group was administered an intravenous dose of 50 mg/kg, 250 mg/kg, 500 mg/kg, 1000 mg/kg or 1500 mg/kg of HPBCD as shown in FIG. 3A. Blood samples were taken immediately prior to injection to establish a baseline triglyceride concentration, and at 24 hours (D2) and 48 hours (D3) post injection for measurement of triglyceride levels. […] Overall, triglyceride levels of participants decreased, particularly evident in participants with higher baseline triglyceride concentrations.

[2] = test system: LDL receptor deficient (LDLR−/−) mice; assay: Serum triglyceride levels in LDLR−/− mouse model after 2 g/kg HPBCD; type: in vivo
Excerpt: LDL receptor deficient (LDLR^−/−) mice were divided into 6 Groups. Prior to the administration of 2 g/kg of HPBCD, Group 1 was fed with normal chow diet (NC) for 5 weeks and Group 2-Group 6 were fed with high-fat (42%), high-cholesterol (1.2%) Western diet (WD) for various durations up to 9 weeks. Experimental scheme and diet schedule is described in FIG. 1A. Mice of Group 1 were further categorized into 3 sub-Groups (e.g., Group 1.1, Group 1.2, and Group 1.3) according to the administration of HPBCD as shown in FIG. 1B. Blood samples were taken from the mouse models, after 5 weeks of feeding and at a certain period of time (e.g., 1 week, 2 weeks, 3 weeks, 4 weeks after 2 g/kg HPBCD treatment), for measurement of triglyceride levels in each model Group. […] (FIG. 2A).

volunteers [3] = assay: Separate placebo-controlled study: change in triglyceride levels from baseline in volunteers (FIG. 3B-3D); type: in vivo, humans; conditions: intravenous 500, 1000 or 1500 mg/kg
Experimental: In a separate study, volunteers were divided into four groups. Each group was administered an intravenous dose of placebo or an intravenous dose of 500 mg/kg, 1000 mg/kg or 1500 mg/kg of HPBCD as shown in FIG. 3B. Blood samples were taken immediately prior to injection to establish a baseline triglyceride concentration, and at 24 hours (left bar) and 48 hours (right bar) post injection. Triglyceride levels are presented as the median average percentage change from baseline. […] The data in FIG. 3B were divided into two groups for further analysis. Group 1 consisted of the portion of the cohort which had baseline triglyceride levels greater than 100 mg/dL. Group 2 had baseline triglyceride levels less than or equal to 100 mg/dL. The average percentage change of triglyceride levels from baseline of Group 1 and Group 2 is shown in FIG. 3C and FIG. 3D respectively. […] This is consistent with the marked reduction (˜30%) in triglyceride levels observed for the one participant in FIG. 3A with a baseline triglyceride level of approximately 425 mg/dL.

With CC(O)COC[C@H]1O[C@@H]2O[C@H]3[C@H](O)[C@@H](O)[C@@H](O[C@H]4[C@H](O)[C@@H](O)[C@@H](O[C@H]5[C@H](O)[C@@H](O)[C@@H](O[C@H]6[C@H](O)[C@@H](O)[C@@H](O[C@H]7[C@H](O)[C@@H](O)[C@@H](O[C@H]8[C@H](O)[C@@H](O)[C@@H](O[C@H]1[C@H](O)[C@H]2O)O[C@@H]8COCC(C)O)O[C@@H]7COCC(C)O)O[C@@H]6COCC(C)O)O[C@@H]5COCC(C)O)O[C@@H]4COCC(C)O)O[C@@H]3COCC(C)O (stereo partly drawn) [HPBCD, 2-hydroxypropyl-beta-cyclodextrin] the “reduction in triglyceride levels” value (volunteers [1]; one participant in FIG. 3A with baseline triglyceride level of approximately 425 mg/dL) was about 30%, the “triglyceride levels following administration (safety)” value (volunteers [1]; volunteers, intravenous 50, 250, 500, 1000 or 1500 mg/kg, 24 h and 48 h post injection, any tested dose, FIG. 3A) was “did not significantly increase” and the “triglyceride levels of participants overall” value (volunteers [1]; volunteers, intravenous 50-1500 mg/kg, 24 h and 48 h post injection, particularly evident with higher baseline triglyceride) was “decreased”. The “triglyceride levels of WD-fed mice after the administration of HPBCD” value ([2]; Western diet (WD), blood sampled 1-4 weeks after treatment, FIG. 2A) was “decreased over time”, the “triglyceride level of NC-fed mice after the administration of HPBCD” value ([2]; normal chow diet (NC), FIG. 2B) was “decreased from 24 hours after the administration” and the “reduction in triglyceride levels, Group 1 (baseline >100 mg/dL) versus Group 2 (baseline ≤100 mg/dL)” value (volunteers [3]; 24 h and 48 h, FIG. 3C and 3D) was “greater reduction in triglyceride levels was observed in participants in Group 1 than those in Group 2”. The “triglyceride levels, median average percentage change from baseline” value (volunteers [3]; 24 h and 48 h post injection, any tested dose, FIG. 3B) was “did not increase”.
